{"source": "paper PMC5007552", "about": "“The hVps34‐SGK3 pathway alleviates sustained PI3K/Akt inhibition by stimulating mTORC1 and tumour growth” (The EMBO Journal, 2016)", "target": "T1, SGK3 (Homo sapiens, UniProt Q96BR1)", "T1 sequence (Q96BR1 1-496)": "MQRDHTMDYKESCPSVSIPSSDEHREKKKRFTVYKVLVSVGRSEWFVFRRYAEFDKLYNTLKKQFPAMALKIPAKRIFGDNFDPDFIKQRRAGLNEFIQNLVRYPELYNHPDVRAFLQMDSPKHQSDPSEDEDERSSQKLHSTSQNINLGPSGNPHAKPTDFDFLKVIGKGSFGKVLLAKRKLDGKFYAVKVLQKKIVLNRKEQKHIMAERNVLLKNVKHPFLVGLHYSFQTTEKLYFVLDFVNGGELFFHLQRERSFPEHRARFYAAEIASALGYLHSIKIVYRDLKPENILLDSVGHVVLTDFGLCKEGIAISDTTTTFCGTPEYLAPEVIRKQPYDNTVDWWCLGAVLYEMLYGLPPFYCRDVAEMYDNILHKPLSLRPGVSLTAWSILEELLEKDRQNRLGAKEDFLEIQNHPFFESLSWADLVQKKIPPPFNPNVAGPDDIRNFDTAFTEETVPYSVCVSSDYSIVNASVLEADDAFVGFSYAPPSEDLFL", "assay": "Immunoprecipitated endogenous SGK3 kinase activity (Crosstide) and SGK3 phosphorylation from treated cells", "assay_type": "cell-based", "set-up": "we immunoprecipitated endogenous SGK3 and assessed protein kinase activity; endogenous in cells; host or cells: ZR-75-1", "conditions": "1 h, ZR-75-1 cells", "method": "Briefly, SGK3, Akt and S6K1 were immunoprecipitated from 1 mg ZR‐75‐1 cell lysate. Immunoprecipitates were washed in sequence with lysis buffer containing high salt concentration (500 mM NaCl), lysis buffer and Buffer A (50 mM Tris pH 7.5, 0.1 mM EGTA). Kinase activity was assessed by measuring [γ‐^32P]ATP incorporation into Crosstide substrate peptide [[…]]. The reactions were carried in 40 μl total volume containing 0.1 mM [γ‐^32P]ATP (400–1,000 cpm/pmol), 10 mM magnesium acetate and 30 μM Crosstide peptide. Reactions were terminated by adding 10 μl 0.1 M EDTA and spotting 40 μl of the resulting reaction mix on P81 paper, which were immediately immersed into 50 mM orthophosphoric acid. Papers were washed at least five times in 50 mM orthophosphoric acid, rinsed in acetone and air‐dried. Radioactivity was quantified by Cerenkov counting. One unit of enzyme activity was defined as amount of enzyme that catalyses incorporation of 1 nmol of [γ‐^32P]ATP into the substrate over 1 min.", "data": [{"molecule": "Nc1n[nH]c2nc(-c3ccc(NS(=O)(=O)c4cc(Cl)ccc4Cl)cc3)cnc12", "note": "[14h]", "values": [{"measurement": "reduction of SGK3 activity and phosphorylation", "setting": "0.1 μM 14h", "value": "~ 80%"}, {"measurement": "SGK3 activity and phosphorylation", "setting": "1 μM 14h", "value": "undetectable"}]}]}
